# Laboratory results from US20250195501A1, “CELL ENTRY-MODULATING AGENTS AND USES THEREFOR” (priority 2020, published 2025).
# Read-outs that look alike come from different tables or passages of the source.
# What was measured:
# [1] = test system: Vero-E6 cells; conditions: for CC50: read-out: CC50 Mean ± SD, Vero-E6 cells, 24 h at 37° C., no virus, alamarBlue
# [2] = biological target: T1, ACE2:RBD-mimic1 peptide interaction (Homo sapiens, UniProt Q9BYF1); experiment: Direct competition SPR: compound vs RBD-mimic1 peptide binding to human ACE2; conditions: compound and RBD-mimic1 peptide flowed at 1 μM over human ACE2
# T1 construct: purchased R&D Systems and Assay Matrix (ACE2); Mimotopes (peptide)
# Procedure: Peptide alone, compound alone and the competition. Percentage competition is calculated by the reduction in final peptide binding divided by the difference between the peptide and the compound alone.
# All SPR sensorgrams and results plots were analyzed with Biacore S200 Evaluation Software (GE Healthcare Life Sciences).
# [3] = test system: SARS-CoV-2; experiment: microbe, parasite or virus in culture; type: cell-based; conditions: for SI (selectivity index, CC50/IC50): Vero-E6 cells; for IC50: read-out: IC50 Mean ± SD (SARS-CoV-2 infection)
# T1 sequence (Q9BYF1 18-740 limits assumed): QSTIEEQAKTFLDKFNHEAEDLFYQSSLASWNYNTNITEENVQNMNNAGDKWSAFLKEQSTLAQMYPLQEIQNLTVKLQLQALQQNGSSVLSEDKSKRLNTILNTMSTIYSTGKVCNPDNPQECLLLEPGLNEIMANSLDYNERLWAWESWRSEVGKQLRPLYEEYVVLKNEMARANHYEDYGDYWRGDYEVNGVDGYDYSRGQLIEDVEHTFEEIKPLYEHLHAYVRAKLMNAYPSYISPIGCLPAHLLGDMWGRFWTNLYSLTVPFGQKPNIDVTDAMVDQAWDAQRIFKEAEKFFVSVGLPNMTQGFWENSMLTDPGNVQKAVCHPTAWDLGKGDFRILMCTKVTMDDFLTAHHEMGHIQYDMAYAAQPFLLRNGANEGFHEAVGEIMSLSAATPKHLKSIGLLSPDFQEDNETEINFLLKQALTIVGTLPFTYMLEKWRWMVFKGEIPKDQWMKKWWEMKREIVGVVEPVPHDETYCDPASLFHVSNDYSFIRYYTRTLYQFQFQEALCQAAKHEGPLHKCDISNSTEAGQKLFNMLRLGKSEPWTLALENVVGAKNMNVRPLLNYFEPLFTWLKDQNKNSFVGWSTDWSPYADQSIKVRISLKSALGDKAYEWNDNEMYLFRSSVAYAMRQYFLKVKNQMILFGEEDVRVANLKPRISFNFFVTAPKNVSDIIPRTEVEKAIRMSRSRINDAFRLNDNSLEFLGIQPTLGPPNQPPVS
Molecule,toxicity toward Vero-E6 cells in the infection assay [1],1:1 Competition between compound vs RBD-mimic1 peptide @ 1 μM (block: Yes/Partial) [2],1:1 Competition between compound vs RBD-mimic1 peptide @ 1 μM (percentage competition) [2],CC50 [1] [µM],"SI (selectivity index, CC50/IC50) [3]",IC50 [3] [µM],"IC50 ([3]; Severe acute respiratory syndrome coronavirus 2, Vero C1008, 24 h) [µM]"
CCc1c2c(nc3ccc(OC(=O)N4CCC(N5CCCCC5)CC4)cc13)-c1cc3c(c(=O)n1C2)COC(=O)[C@]3(O)CC [Irinotecan],toxicity was observed,Yes,(100% ± 6.36),–,–,–,–
Ledipasvir,toxicity was observed,Partial,–,–,–,–,–
Cc1cc(-c2ccc(/N=N/c3ccc4c(S(=O)(=O)[O-])cc(S(=O)(=O)[O-])c(N)c4c3O)c(C)c2)ccc1/N=N/c1ccc2c(S(=O)(=O)[O-])cc(S(=O)(=O)[O-])c(N)c2c1O.[Na+].[Na+].[Na+].[Na+] [Evans Blue],low toxicity,completely block and Yes,~100%,> 1000,>35.6,28.1 ± 1.2,–
CC1(C)CCC(CN2CCN(c3ccc(C(=O)NS(=O)(=O)c4ccc(NCC5CCOCC5)c([N+](=O)[O-])c4)c(Oc4cnc5[nH]ccc5c4)c3)CC2)=C(c2ccc(Cl)cc2)C1 [Venetoclax],toxicity was observed,Partial,–,–,–,–,–
Cc1ccc(C(=O)Nc2ccc(S(=O)(=O)O)c3cc(S(=O)(=O)O)cc(S(=O)(=O)O)c23)cc1NC(=O)c1cccc(NC(=O)Nc2cccc(C(=O)Nc3cc(C(=O)Nc4ccc(S(=O)(=O)O)c5cc(S(=O)(=O)O)cc(S(=O)(=O)O)c45)ccc3C)c2)c1 [Suramin],–,–,–,> 1000,>21.6,–,28.1 ± 1.2
COC[C@H]1C[C@@H](c2nc(-c3ccc4c(c3)COc3cc5c(ccc6nc([C@@H]7CC[C@H](C)N7C(=O)[C@@H](NC(=O)OC)C(C)C)[nH]c65)cc3-4)c[nH]2)N(C(=O)[C@H](NC(=O)OC)c2ccccc2)C1 [Velpatasvir],toxicity was observed,Partial,–,–,–,–,–
